The record followed here is publication PMC6917776, “Discovery of a chemical probe for PRDM9” (Nature Communications, 2019).

Read-outs that look alike come from different tables or passages of the source. Bounds are passed on as bounds.

The target of one assay is T1, DOT1L (Homo sapiens, UniProt Q8TEK3).
T1 construct: purchased Structural Genomics Consortium (SGC Toronto) in-house methyltransferase panel
Put plainly: Methyltransferase selectivity assay (filter-based, nucleosome substrate). The assay is classed as biochemical. As for the experimental part:
(§1) Selectivity against methyltransferases were determined as described previously. Details of the assays are described in the supplementary methods.
(§2) Methyltransferase selectivity assay1
(§3) The effect of chemical probes and negative controls on the methyltransferase activities of protein, DNA and RNA methyltransferases was tested by radiometric assays using 3H-SAM. […]
(§4) The CPM in the absence of compound or enzyme was defined as 100% activity and background (0%), respectively, for each dataset. […]
(§5) For proteins which were tested with nucleosome as substrate such as DOT1L, NSD1, NSD2, NSD3, and ASH1L, or unbiotinylated Poly(2′-deoxyinosinic-2′-deoxycytidylic acid) (Cat# 81349-500UG, Sigma Aldrich) such as DNMT3A/3L, and DNMT3B/3L, a filter-based assay was used. In this assay, a trichloroacetic acid (TCA) protein precipitation protocol was employed. A 10 µL reaction mixture was incubated at 23°C for 1 h, followed by addition of 50 µL of 10% TCA. The mixture was transferred to filter plates (Millipore, Billerica, MA, USA) that were centrifuged at 2000 rpm (Allegra X-15R; Beckman Coulter, Brea, CA, USA) for 2 min. Samples were washed twice with 10% TCA and once with ethanol (180 µL), and centrifuged. After drying, 100 µL MicroScint-O (Perkin Elmer) was added to each well and the plates were centrifuged to remove the liquid. A 70 µL volume of MicroScint-O was added and the CPM was measured with a TopCount plate reader.

In the next assay the target is T2, NSD2 (Homo sapiens, UniProt O96028).
T2 construct: purchased Structural Genomics Consortium (SGC Toronto) in-house methyltransferase panel
T2 sequence (O96028 1-1365): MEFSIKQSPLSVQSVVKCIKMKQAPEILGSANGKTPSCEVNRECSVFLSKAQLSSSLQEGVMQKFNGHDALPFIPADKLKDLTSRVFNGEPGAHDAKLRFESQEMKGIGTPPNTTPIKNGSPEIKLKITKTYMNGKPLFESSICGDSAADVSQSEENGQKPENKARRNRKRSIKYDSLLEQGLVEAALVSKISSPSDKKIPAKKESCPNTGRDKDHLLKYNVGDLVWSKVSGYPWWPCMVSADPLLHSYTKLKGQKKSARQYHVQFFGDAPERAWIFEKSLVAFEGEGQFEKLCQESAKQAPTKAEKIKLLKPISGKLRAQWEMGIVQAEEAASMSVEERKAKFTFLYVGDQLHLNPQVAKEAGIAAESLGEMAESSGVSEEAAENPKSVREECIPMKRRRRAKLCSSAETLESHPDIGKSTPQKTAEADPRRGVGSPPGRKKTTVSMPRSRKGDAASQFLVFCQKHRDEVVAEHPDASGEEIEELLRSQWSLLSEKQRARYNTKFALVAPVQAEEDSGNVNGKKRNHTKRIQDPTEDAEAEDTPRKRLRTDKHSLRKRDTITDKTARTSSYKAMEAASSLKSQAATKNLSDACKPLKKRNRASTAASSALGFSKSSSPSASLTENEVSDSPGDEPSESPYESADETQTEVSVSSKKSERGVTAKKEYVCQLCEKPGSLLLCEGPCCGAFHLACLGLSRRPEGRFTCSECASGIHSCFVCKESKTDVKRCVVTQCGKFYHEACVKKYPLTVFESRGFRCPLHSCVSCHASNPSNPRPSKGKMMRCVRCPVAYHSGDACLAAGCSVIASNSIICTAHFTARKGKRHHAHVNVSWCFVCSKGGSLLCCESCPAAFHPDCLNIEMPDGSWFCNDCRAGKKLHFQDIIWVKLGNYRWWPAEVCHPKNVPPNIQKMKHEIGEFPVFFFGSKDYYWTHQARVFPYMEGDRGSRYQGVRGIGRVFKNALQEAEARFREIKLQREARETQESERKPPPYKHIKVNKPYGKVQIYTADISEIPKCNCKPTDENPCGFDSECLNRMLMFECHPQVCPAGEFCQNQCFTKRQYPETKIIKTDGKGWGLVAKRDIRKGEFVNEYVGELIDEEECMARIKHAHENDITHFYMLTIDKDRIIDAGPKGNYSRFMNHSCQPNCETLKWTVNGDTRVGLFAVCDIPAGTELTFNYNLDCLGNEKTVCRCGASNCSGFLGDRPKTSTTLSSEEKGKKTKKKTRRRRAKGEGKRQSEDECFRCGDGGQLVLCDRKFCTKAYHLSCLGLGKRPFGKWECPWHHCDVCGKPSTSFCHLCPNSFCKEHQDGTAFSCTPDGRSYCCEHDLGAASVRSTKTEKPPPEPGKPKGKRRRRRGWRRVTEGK
Described as above. It counts as biochemical. As for the experimental part:
as §1, §2, §3, §4, §5

The next assay concerns the target T3, Muscarinic M2 (Homo sapiens, UniProt P08172).
T3 construct: NIMH Psychoactive Drug Screening Program, University of North Carolina at Chapel Hill
T3 sequence (P08172 1-466): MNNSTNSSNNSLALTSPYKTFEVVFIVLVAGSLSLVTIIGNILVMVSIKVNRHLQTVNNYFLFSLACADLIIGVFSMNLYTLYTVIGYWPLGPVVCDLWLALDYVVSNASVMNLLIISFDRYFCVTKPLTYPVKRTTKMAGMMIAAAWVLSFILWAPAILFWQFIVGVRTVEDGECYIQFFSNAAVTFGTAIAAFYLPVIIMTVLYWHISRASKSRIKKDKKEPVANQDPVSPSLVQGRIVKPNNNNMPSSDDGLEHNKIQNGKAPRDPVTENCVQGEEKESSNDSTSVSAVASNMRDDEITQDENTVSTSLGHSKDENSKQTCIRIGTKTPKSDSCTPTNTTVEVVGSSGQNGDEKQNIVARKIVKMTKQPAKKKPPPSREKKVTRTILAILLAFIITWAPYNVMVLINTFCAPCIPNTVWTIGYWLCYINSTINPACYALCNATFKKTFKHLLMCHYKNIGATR
Nature of the assay: Eurofins Panlabs panel, radioligand binding. To be noted: at 10 µM.

The mark [1] stands for this setting: 1µM compound, Exp1, Exp2, read-out: Activity %.
Where [2] appears, read: 10µM compound, Exp1, Exp2, read-out: Activity %.
Setting [3] is: 10µM compound, Exp1, Exp2, 10 µM.

T1 sequence (Q8TEK3 whole entry): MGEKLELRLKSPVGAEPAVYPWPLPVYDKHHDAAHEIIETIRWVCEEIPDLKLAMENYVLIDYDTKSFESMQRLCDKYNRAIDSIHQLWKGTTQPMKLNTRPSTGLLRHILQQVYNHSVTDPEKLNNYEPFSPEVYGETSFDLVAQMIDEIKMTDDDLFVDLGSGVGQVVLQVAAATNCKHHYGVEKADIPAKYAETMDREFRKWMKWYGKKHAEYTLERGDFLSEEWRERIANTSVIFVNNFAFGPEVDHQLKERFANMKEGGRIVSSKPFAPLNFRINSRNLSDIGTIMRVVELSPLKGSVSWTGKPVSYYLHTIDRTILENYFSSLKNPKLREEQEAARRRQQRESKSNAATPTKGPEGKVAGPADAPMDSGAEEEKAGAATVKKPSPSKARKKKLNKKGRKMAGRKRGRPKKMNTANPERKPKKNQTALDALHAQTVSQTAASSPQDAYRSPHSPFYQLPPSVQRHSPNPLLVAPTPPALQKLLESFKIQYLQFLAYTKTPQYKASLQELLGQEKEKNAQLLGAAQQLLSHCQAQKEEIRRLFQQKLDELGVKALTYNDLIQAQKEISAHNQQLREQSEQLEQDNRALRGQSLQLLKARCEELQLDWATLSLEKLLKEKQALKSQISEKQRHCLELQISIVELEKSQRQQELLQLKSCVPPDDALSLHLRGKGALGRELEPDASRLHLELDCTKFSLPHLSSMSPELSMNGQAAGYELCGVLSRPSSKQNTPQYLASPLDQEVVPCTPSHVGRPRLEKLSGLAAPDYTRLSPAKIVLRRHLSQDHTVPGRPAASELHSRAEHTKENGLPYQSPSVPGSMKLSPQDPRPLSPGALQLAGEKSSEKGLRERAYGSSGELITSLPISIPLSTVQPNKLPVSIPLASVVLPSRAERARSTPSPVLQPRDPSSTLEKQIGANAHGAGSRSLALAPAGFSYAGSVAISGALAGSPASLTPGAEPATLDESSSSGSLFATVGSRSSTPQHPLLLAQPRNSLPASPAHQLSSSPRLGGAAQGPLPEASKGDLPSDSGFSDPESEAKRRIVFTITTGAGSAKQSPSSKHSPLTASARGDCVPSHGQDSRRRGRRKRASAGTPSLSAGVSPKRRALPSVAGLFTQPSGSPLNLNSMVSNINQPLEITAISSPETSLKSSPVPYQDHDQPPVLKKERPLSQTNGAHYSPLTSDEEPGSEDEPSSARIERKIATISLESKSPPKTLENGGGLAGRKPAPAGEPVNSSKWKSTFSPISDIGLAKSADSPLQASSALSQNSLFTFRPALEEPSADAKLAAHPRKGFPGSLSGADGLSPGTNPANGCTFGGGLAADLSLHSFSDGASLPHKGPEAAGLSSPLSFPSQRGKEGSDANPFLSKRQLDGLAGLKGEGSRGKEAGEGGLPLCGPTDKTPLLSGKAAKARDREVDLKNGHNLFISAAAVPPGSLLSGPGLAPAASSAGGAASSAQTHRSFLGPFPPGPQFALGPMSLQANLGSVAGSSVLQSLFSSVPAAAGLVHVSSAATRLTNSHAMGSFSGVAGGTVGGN

As to `COc1cc(OC)cc(-c2noc(N3CCN(C)C4(CCN(c5ccnc(C)c5)CC4)C3)n2)c1` [MRK-740], the Activity % on DOT1L (1µM compound, Exp1, Exp2, 1 µM) was 100%; at NSD2 (1µM compound, Exp1, Exp2, 1 µM) it was 97%; at NSD2 (setting [3]), 95%. The activity at 1 µM at DOT1L (setting [1]) was 98%; on NSD2 (setting [1]) it was 91%. Besides, the activity at 10 µM amounted to 97% on DOT1L (setting [2]) and 98% at NSD2 (setting [2]). For the same compound, on Muscarinic M2, the Binding was > 50%.
For the compound `COc1cc(OC)cc(-c2noc(N3CCN(C)C4(CCN(c5ccccc5)CC4)C3)n2)c1` [MRK-740 -NC], the activity at 1 µM at DOT1L (1µM compound, Exp1, Exp2) is 104%; on NSD2 (1µM compound, Exp1, Exp2) it was 98%. For the same compound, the Activity % is listed as 102% at DOT1L (1µM compound, Exp1, Exp2, 1 µM); 99% on DOT1L (setting [3]); 100% on NSD2 (1µM compound, Exp1, Exp2, 1 µM); 88% on NSD2 (setting [3]). Moreover, the activity at 10 µM at DOT1L (10µM compound, Exp1, Exp2) was 100%; on NSD2 (10µM compound, Exp1, Exp2) it was 98%.
